Structures are written as SMILES. pEC50: −log10 of the molar value.

We go through twelve molecules from ChEMBL document CHEMBL4680063, “G-Protein biased opioid agonists: 3-hydroxy-N-phenethyl-5-phenylmorphans with three-carbon chain substituents at C9” (RSC Med Chem, 2020).

The target in assay [1] is T1, Mu-type opioid receptor (Homo sapiens, UniProt P35372). Briefly: Agonist activity at human MOR expressed in CHOK1 cells assessed as inhibition of forskolin-stimulated cAMP accumulation incubated for 30 mins by luminescence assay. In kind it is functional, cell-based, CHO-K1. For orientation: cAMP levels reflect the balance of adenylyl cyclase and phosphodiesterase activity.
T1 sequence (P35372 whole entry): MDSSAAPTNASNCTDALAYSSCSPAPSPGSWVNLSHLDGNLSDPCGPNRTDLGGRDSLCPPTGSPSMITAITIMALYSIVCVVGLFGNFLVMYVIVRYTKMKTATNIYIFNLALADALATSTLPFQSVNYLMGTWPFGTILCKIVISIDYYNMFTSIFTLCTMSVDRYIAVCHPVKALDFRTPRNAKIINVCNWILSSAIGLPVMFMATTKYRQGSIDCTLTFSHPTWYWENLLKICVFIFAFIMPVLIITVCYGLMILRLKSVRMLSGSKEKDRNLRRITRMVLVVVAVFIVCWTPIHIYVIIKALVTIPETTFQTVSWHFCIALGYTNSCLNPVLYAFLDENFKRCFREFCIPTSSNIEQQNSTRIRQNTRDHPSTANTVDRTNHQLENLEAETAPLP

For assay [2], the target named is T1, Mu-type opioid receptor. Briefly: Activity at human MOR expressed in CHOK1 cells co-expressing beta-arrestin2 EFC assessed as beta-arrestin2 EFC recruitment measured after 90 mins by PathHunter assay. In kind it is ADME, cell-based, CHO-K1.
In assay [3] the target is Kappa-type opioid receptor (Homo sapiens, UniProt P41145). Briefly: Agonist activity at human KOR expressed in CHOK1 cells assessed as inhibition of forskolin-stimulated cAMP accumulation incubated for 30 mins by luminescence assay. In kind it is functional, cell-based, CHO-K1.
Sequence of Kappa-type opioid receptor (P41145 whole entry): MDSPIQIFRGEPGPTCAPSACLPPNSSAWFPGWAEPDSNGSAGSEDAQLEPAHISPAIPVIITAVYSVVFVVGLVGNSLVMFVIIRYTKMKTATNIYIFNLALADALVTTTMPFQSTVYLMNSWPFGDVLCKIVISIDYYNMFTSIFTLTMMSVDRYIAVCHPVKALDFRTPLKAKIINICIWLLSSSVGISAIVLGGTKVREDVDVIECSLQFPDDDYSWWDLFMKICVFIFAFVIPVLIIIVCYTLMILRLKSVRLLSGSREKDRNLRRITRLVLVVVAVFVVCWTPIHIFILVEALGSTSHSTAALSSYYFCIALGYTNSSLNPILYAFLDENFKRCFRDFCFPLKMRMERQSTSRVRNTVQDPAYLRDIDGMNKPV
Assay [4] concerns the target Delta-type opioid receptor (Homo sapiens, UniProt P41143). Briefly: Agonist activity at human DOR expressed in CHOK1 cells assessed as inhibition of forskolin-stimulated cAMP accumulation incubated for 30 mins by luminescence assay. In kind it is functional, cell-based, CHO-K1.
For assay [5], the target named is T1, Mu-type opioid receptor. The experiment in a line: Activity at human MOR expressed in U2OS cells co-expressing beta-arrestin2 EFC assessed as beta-arrestin2 EFC recruitment by Tango assay. Format: ADME, cell-based.
For assay [6], the target named is T1, Mu-type opioid receptor. Briefly: Agonist activity at human MOR expressed in CHOK1 cells assessed as induction of beta-arrestin recruitment measured after 90 mins by PathHunter assay relative to control. In kind it is cell-based. The following applies: CHO-K1.

Sequence of Delta-type opioid receptor (P41143 whole entry): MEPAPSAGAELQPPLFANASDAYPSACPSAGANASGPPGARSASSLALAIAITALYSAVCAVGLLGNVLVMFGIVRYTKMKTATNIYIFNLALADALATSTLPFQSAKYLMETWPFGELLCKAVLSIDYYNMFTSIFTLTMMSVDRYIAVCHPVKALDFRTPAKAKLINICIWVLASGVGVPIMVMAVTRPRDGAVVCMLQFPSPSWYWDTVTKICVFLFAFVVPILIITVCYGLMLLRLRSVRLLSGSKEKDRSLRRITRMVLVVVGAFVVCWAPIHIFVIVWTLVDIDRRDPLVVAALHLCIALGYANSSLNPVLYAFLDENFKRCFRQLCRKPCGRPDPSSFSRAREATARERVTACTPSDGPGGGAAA

As usually defined, the pEC50 is the negative decadic logarithm of the EC50, by convention in mol/L. `COC(=O)CC[C@@H]1[C@@H]2CCC[C@@]1(c1cccc(O)c1)CCN2CCc1ccccc1`: the pEC50 is 6.07 in assay [1], < 4.60 in assay [2], 6.49 in assay [3] and < 5.00 in assay [4].
Taken in the same sequence, the figures for `Oc1cccc([C@@]23CCC[C@H]([C@H]2O)N(CCc2ccccc2)CC3)c1` were 10.77, 8.22, 6.49 and 8.59.
Take `OCCC[C@H]1[C@@H]2CCC[C@@]1(c1cccc(O)c1)CCN2CCc1ccccc1`: the pEC50 in assay [5] is < 4.60; in assay [2], < 4.60; in assay [3] it was < 5.00; in assay [4], 7.09.
The Emax is the maximal effect, on the per cent scale that the assay sets. On to `C[C@@H](Cc1ccsc1)NC(=O)NC[C@H](Cc1ccc(O)cc1)N(C)C`, for which the Emax in assay [6] was determined as 4.3%.
`COC(=O)CC[C@H]1[C@@H]2CCC[C@@]1(c1cccc(O)c1)CCN2CCc1ccccc1`: the pEC50 was 7.90 in assay [5], 9.34 in assay [1], 8.76 in assay [2] and < 5.00 in assay [4].
As for `CCOC(=O)CC[C@H]1[C@@H]2CCC[C@@]1(c1cccc(O)c1)CCN2CCc1ccccc1`, the negative-log EC50 (pEC50) in assay [5] was < 4.60; in assay [1], 9.62; in assay [2], 7.94; in assay [3], 7.45; in assay [4], 7.31.
On to `COC(=O)CC[C@@H]1[C@H]2CCC[C@]1(c1cccc(O)c1)CCN2CCc1ccccc1`, for which the pEC50 in assay [5] is < 4.60; in assay [1] it was 7.50; in assay [2] it was < 4.60; in assay [3], < 5.00; in assay [4], < 5.00.
As for `CCC[C@H]1[C@@H]2CCC[C@@]1(c1cccc(O)c1)CCN2CCc1ccccc1`, the pEC50 in assay [5] was < 4.60; in assay [2], < 4.60; in assay [3] it was < 5.00; in assay [4], < 5.00.
As to `O=C(O)CC[C@H]1[C@@H]2CCC[C@@]1(c1cccc(O)c1)CCN2CCc1ccccc1`, the negative-log EC50 (pEC50) in assay [5] was < 4.60; in assay [1], 7.50; in assay [2] it was < 4.60; in assay [3], < 5.00; in assay [4] it was < 5.00.
Take `COC(=O)/C=C/[C@H]1[C@@H]2CCC[C@@]1(c1cccc(O)c1)CCN2CCc1ccccc1`: the pEC50 was 6.88 in assay [1], < 4.60 in assay [2], < 5.00 in assay [3] and 6.84 in assay [4].
Consider `OCCC[C@@H]1[C@H]2CCC[C@]1(c1cccc(O)c1)CCN2CCc1ccccc1`, for which the negative logarithm of the EC50 (pEC50) in assay [5] was < 4.60; in assay [2] it was < 4.60; in assay [3] it was < 5.00; in assay [4] it was < 5.00.
Regarding `OC/C=C/[C@H]1[C@@H]2CCC[C@@]1(c1cccc(O)c1)CCN2CCc1ccccc1`, the pEC50 in assay [5] is < 4.60; in assay [2], < 4.60; in assay [3] it was < 5.00; in assay [4], < 5.00.
